In ChEMBL document CHEMBL5331051, “Cationic, amphipathic small molecules based on a triazine-piperazine-triazine scaffold as a new class of antimicrobial agents” (Eur J Med Chem, 2022):

Experiments:
Format in all cases: functional
[1] = tested on: Staphylococcus aureus; assay: Additive antibacterial activity against multidrug-resistant Staphylococcus aureus CCARM 3089 strain assessed as fractional inhibitory concentration index in presence of ciprofloxacin by checkerboard assay
[2] = tested on: Staphylococcus aureus; assay: Additive antibacterial activity against methicillin-resistant Staphylococcus aureus CCARM 3089 strain assessed as bacterial growth inhibition in presence of ciprofloxacin by checkerboard assay
[3] = tested on: Pseudomonas aeruginosa; assay: Additive antibacterial activity against multidrug-resistant Pseudomonas aeruginosa CCARM 2095 strain assessed as ciprofloxacin fractional inhibitory concentration by checkerboard assay
[4] = tested on: Pseudomonas aeruginosa; assay: Additive antibacterial activity against multidrug-resistant Pseudomonas aeruginosa CCARM 2095 strain assessed as ciprofloxacin MIC by checkerboard assay
[5] = tested on: Staphylococcus aureus; assay: Antibacterial activity against multidrug-resistant Staphylococcus aureus CCARM 3089 strain assessed as ciprofloxacin fractional inhibitory concentration by checkerboard assay
[6] = tested on: Pseudomonas aeruginosa; assay: Additive antibacterial activity against multidrug-resistant Pseudomonas aeruginosa CCARM 2095 strain assessed as chloramphenicol MIC by checkerboard assay
[7] = tested on: Pseudomonas aeruginosa; assay: Additive antibacterial activity against multidrug-resistant Pseudomonas aeruginosa CCARM 2095 strain assessed as fractional inhibitory concentration in presence of ciprofloxacin by checkerboard assay
[8] = tested on: Staphylococcus aureus; assay: Antibacterial activity against multidrug-resistant Staphylococcus aureus CCARM 3089 strain assessed as fractional inhibitory concentration by checkerboard assay
[9] = tested on: Pseudomonas aeruginosa; assay: Additive antibacterial activity against multidrug-resistant Pseudomonas aeruginosa CCARM 2095 strain assessed as bacterial growth inhibition in presence of ciprofloxacin by checkerboard assay
[10] = tested on: Staphylococcus aureus; assay: Antibacterial activity against methicillin-resistant Staphylococcus aureus CCARM 3089 strain assessed as bacterial growth inhibition in presence of ciprofloxacin by checkerboard assay
[11] = tested on: Pseudomonas aeruginosa; assay: Antibiofilm activity against multidrug-resistant Pseudomonas aeruginosa assessed as bacterial growth inhibition at 8 ug/ml relative to control

NCCNc1nc(NCCN)nc(N2CC(Cc3ccccc3)N(c3nc(NCCN)nc(NCCN)n3)CC2Cc2ccccc2)n1 (stereo unspecified)
fractional inhibitory concentration index (FICI) [1]: 0.75 | MIC [2]: 16 µg/mL

N=C(N)NCCNc1nc(NCCNC(=N)N)nc(N2CC(Cc3ccccc3)N(c3nc(NCCNC(=N)N)nc(NCCNC(=N)N)n3)CC2Cc2ccccc2)n1 (stereo unspecified)
FIC [3]: 0.5 | MIC [4]: 512 µg/mL | FIC [5]: 0.25 | MIC [6]: 256 µg/mL | FIC [7]: 0.5 | FIC [8]: 1 | MIC [9]: 16 µg/mL | MIC [10]: 8 µg/mL

NCCN(CCN)c1nc(NCc2ccccc2)nc(N2CC(Cc3ccccc3)N(c3nc(NCc4ccccc4)nc(N(CCN)CCN)n3)CC2Cc2ccccc2)n1 (stereo unspecified)
inhibition at 8 µg/mL [11]: 100%
